What was measured:
[1] = test system: Bax/Bak WT and double knockout (DKO) SV40-transformed MEF cells; assay: Apoptosis, ROS and mitochondrial morphology in Bax/Bak MEF cells; assay type: cell-based, mouse; details: cisplatin alone 20 h in DKO cells; combination within 8 h
Method: FIG. 24A-E. The combination of cisplatin and mdivi-1 enhances MOMP bypassing Bax/Bak-dependent mechanism. (A) Bax/Bak wild-type (Bax/Bak+/+) and double knockout (Bax/Bak−/−) SV40-transformed MEF cells were treated with cisplatin at indicated concentrations for 20 h. The cleavage of caspase-9 and -3 were detected by western blot. (B, C) Cleavage of caspase-9 and -3 in Bax/Bak wild-type and double knockout MEF cells after combination treatment. (D) Quantification of apoptotic cells by Annexin V and PI after 8 h treatment of combination at 50 μM. (E) Release of cytochrome c from Bax/Bak wild-type and double knockout MEF cells after combination treatment.
FIG. 25A-I. Mdivi-1 causes mitochondrial dysfunction and its combination with cisplatin induces mitochondrial swelling that triggers Bax/Bak-independent MOMP. (A) MDA-MB-231 cells and H1299 cells were treated as indicated for 4 h and subjected to ATP determination. […] (B, C) OCR and ECAR were measured after 4 h treatment of H1299 cells with agents alone or the combination (C/M). […] Mitochondrial membrane potential was determined with TMRM. […] Mitochondrial membrane potential was measured as in D. (F) Bax/Bak double knockout MEF cells were treated as indicated for 2 h, ROS generation was determined with DCF-DA. […] Mitochondrial morphology was analyzed by confocal microscopy. […] Mitochondrial ultrastructure was analyzed by electron microscopy. […]

[2] = test system: Drp1 wild-type (WT) and knockout (KO) SV40-transformed MEF cells; assay: Drp1 wild-type and knockout MEF cells: cleaved caspase-3, CyQuant, OCR; assay type: cell-based, mouse
Method: FIG. 21A-F. Mdivi-1 enhances cisplatin sensitivity through Drp1-independent mechanisms. (A) Confirmation of the depletion of Drp1 in Drp1 knockout SV40-transformed MEF cells by western blot. (B) Drp1 wild-type (Drp1+/+) and knockout (Drp1−/−) MEF cells were treated as indicated for 20 h, and the number of apoptotic cells was determined by antibody recognizing cleaved caspase-3. […] (C) Drp1 wild-type and knockout MEF cells were treated with mdivi-1 for 24 h, and the cell number were determined by CyQuant assay. (D) OCR was measured after 1 h treatment of Drp1 wild-type and knockout MEF cells with DMSO or mdivi-1. (E) The combination effect of cisplatin with four analogs of mdivi-1. […]
Cell proliferation was determined using a CyQUANT Direct Cell Proliferation Assay kit (Invitrogen), the activity of caspase-3/7 was measured using a Caspase-Glo 3/7 Assay Systems (Promega, Madison, Wis.), and the MTS colorimetric survival assay was performed using the CellTiter 96 AQueous One Solution Cell Proliferation Assay kit (Promega, Madison, Wis.), according to the manufacturer's instructions. The survival fractions were calculated after setting untreated control cells at 100%. […] The cytotoxic interactions between the two drugs was determined using the method of Chou and Talalay. The combination index (CI) was determined using a computer program CompuSyn. […]

Drp1 = details: as said in Cassidy-Stone et al., Dev Cell 14:193-204; cited from earlier work
MDA-MB-231 cells = assay: MTS colorimetric survival assay; assay type: cell-based, human; details: agent alone, 72 h, read-out: IC50, inhibition of growth / survival
Method: FIG. 19A-E. Combination of cisplatin and mdivi-1 produces synergistic pro-apoptotic effect in multidrug resistant tumor cells. (A) MDA-MB-231 cells were treated with increasing doses of mdivi-1 for 72 h. The survival was assessed by MTS assay. […] (B) MDA-MB-231 cells were treated with increasing doses of cisplatin alone or the combination with 20 μM or 50 μM of mdivi-1 for 72 h. The survival was assessed by MTS assay. (C) MDA-MB-231 cells were exposed to cisplatin and mdivi-1 alone or combination at their IC50 or 0.5 fold of their IC50. The combination index (CI) and the normalized isobologram were generated using CompuSyn. […] The compounds were then washed out and the cell number was determined every 24 h by CyQuant assay. […] The number of apoptotic cells was determined with antibody recognizing cleaved caspase-3 followed by flow cytometry.
Cell proliferation was determined using a CyQUANT Direct Cell Proliferation Assay kit (Invitrogen), the activity of caspase-3/7 was measured using a Caspase-Glo 3/7 Assay Systems (Promega, Madison, Wis.), and the MTS colorimetric survival assay was performed using the CellTiter 96 AQueous One Solution Cell Proliferation Assay kit (Promega, Madison, Wis.), according to the manufacturer's instructions. The survival fractions were calculated after setting untreated control cells at 100%. […]

Compound | cleavage of caspase-9 and -3 [1] | mitochondrial respiration (OCR) in Drp1 WT and KO cells ([2]; 1 h treatment) | cell proliferation (CyQuant) in Drp1 WT and KO cells ([2]; 24 h) | efficacy in inhibiting Drp1 relative to mdivi-1 (Drp1) | IC50 (MDA-MB-231 cells) [µM]
N.N.[Cl][Pt][Cl] [cisplatin] | absence of cleavage of caspase-9 and -3 |  |  |  | 
COc1cc(-n2c(=S)[nH]c3ccccc3c2=O)c(Cl)cc1Cl [mdivi-1] |  | inhibition | inhibition of cell proliferation | full efficacy | 55.9 ± 1.92
